Measured values from patent US12557817B2, “Bioactive peptides having detrimental effects on pest slugs” (priority 2019, dated 2026).

Experiments:
gray garden slugs [1] = assay: Mortality after peptide injection into slugs; type: in vivo, Deroceras reticulatum; conditions: 100 nmol injected
Experimental: The gray garden slugs utilized herein (Deroceras reticulatum) were collected in Corvallis, Oregon, USA, and maintained with carrot and lettuce in a controlled incubator (13° C., 90% RH, 14: 10=light:dark, dim light). To test their effects on slugs, 100 nmol of each of the peptides (SEQ ID NO: 1, SEQ ID NO: 3, SEQ ID NO: 19, SEQ ID NO: 25 and SEQ ID NO: 26) was dissolved in 5 μL of purified water (100 nmol) and injected into 10 gray garden slugs per each treatment. Under dry conditions, after 24 h the slug mortalities observed were 40% with SEQ ID NO: 1, 70% with SEQ ID NO: 3, 90% with SEQ ID NO: 19, 70% with SEQ ID NO: 25, and 70% with SEQ ID NO: 26. […] Under wet conditions, the slug mortalities observed within 24 h were 40% with SEQ ID NO: 19, 40% with SEQ ID NO: 25, and 30% with SEQ ID NO: 26.

gray garden slugs [2] = assay: Body weight loss and phenotype after peptide injection into slugs; type: in vivo, Deroceras reticulatum; conditions: for body weight loss relative to water control: 10 nmol injected, after 72 h
Experimental: The gray garden slugs utilized herein (Deroceras reticulatum) were collected in Corvallis, Oregon, USA, and maintained with carrot and lettuce in a controlled incubator (13° C., 90% RH, 14: 10=light:dark, dim light). To test their effects on slugs, peptides of SEQ ID NO: 3 and SEQ ID NO: 4 were dissolved in 5 μl of purified water (10 nmol) and injected into four gray garden slugs per each treatment. Over 80% of the slug body weight was lost after 72 h when either peptide was injected into the slugs, almost 2-fold higher than the water control (FIG. 3).

[3] = test system: two slug GPCRs (receptor A and B) expressed in the Sf9 insect cell line; assay: Binding assay with peptides: calcium fluorescence (FLIPR Calcium 6) in Sf9 cells expressing slug GPCRs; type: cell-based, Deroceras reticulatum; conditions: for EC50: Sf9 cells expressing receptor A or receptor B, receptor not given; for binding activity / activation of the receptors: alanine-substituted or N-terminally reduced peptides of SEQ ID NO: 3, FIG. 5
From the text: The open reading frames (ORFs) of D. reticulatum GPCRs were inserted into a pIB/V5-His TOPO® TA expression vector (Thermo Fisher Scientific) to be expressed in Sf9 cells as described previously (Choi et al., Gen. Comp. Endocrinol., (2017) 246:354-62). To add a Kozak sequence (G/ANNATGG) in the translation initiation the ORFs of D. reticulatum GPCRs were amplified using specific primer sets. The sequences of two different ORFs of D. reticulatum GPCRs were confirmed after insertion into the expression vector.
Small synthetic peptides derived from the PRXamide family members identified from the gray garden slug and insects (Table 1), were tested to determine their binding activities to two slug GPCRs (receptor A and B) expressed in the Sf9 insect cell line. All peptide ligands of SEQ ID NOs: 1-16 and 19-28, as well as the “RY” dipeptide and “PRY” tripeptide (purity >95%) were synthesized from Peptide 2.0 (Chantily, VA, USA). Sf9 cells were cultured as described previously (Choi et al., supra). About 50,000 cells per well in a 96-well plate (Corning C3603) were incubated at 28° C. overnight. At 48 h, cells were rinsed with 100 μL of fresh medium without fetal bovine serum (FBS). Then, cells were incubated in 95 μL of 1×FLIPR Calcium 6 reagent (Molecular Devices, San Jose, CA, USA) containing 2.5 mM probenecid at room temperature in the dark for 1 h. The reagent-loaded cells were transferred to the Flexstation 3 multimode microplate reader (Molecular Devices) equipped with filters (excitation: 485 nm and emission: 520 nm) and an 8-channel pipettor. Fluorescence measurements from each well on the column were taken every 5 s for 4 min. After 30 s the peptide ligand (10 μL) was added with the pipettor and fluorescent intensity was measured for up to 3 min. Then, 5 μL of 1 μM ionomycin (Thermo Fisher Scientific) was added to the cells to obtain a maximum fluorescence reading. Baseline fluorescence was determined by averaging 5 time points from each well prior to treatment with ligand and the resulting response was expressed as a percent increase in fluorescence relative to baseline value. Cells were tested only once with a ligand then discarded. Data were analyzed using Microsoft Excel as described previously, and half-maximal effective concentration (EC50) values of ligands were determined using GraphPad Prism 6 (GraphPad Software, Inc., San Diego, CA).
The binding affinity to the two receptors of these two peptides, QPPLPRY-NH2 (SEQ ID NO: 3) and QPPVPRY-NH2 (SEQ ID NO: 4), was measured based on specific fluorescent intensity of the Sf9 cells expressing receptor A or receptor B in a 96-well plate. A strong fluorescent signal indicated strong binding activity between the peptide ligand and receptor.
To test the effect of varying individual amino acid residues and varying the length of the peptide of SEQ ID NO: 3, different amino acid residues were replaced with alanine (A), or the overall length of the peptide was reduced by sequentially removing amino acid residues from the N-terminal end of SEQ ID NO: 3 (Table 1, SEQ ID NO: 19, SEQ ID NO: 20, SEQ ID NO: 21, SEQ ID NO: 22, SEQ ID NO: 23, SEQ ID NO: 24, SEQ ID NO: 25, SEQ ID NO: 26, SEQ ID NO: 27, SEQ ID NO: 28). Altered peptides were tested and measured for binding activity with the receptors using the same methods as described above.

gray garden slugs [4] = assay: Anti-feeding on peptide-treated lettuce leaf; type: in vivo, Deroceras reticulatum; conditions: lettuce treated with 200 nmol peptide
Experimental: The gray garden slugs utilized herein (Deroceras reticulatum) were collected in Corvallis, Oregon, USA, and maintained with carrot and lettuce in a controlled incubator (13° C., 90% RH, 14: 10=light:dark, dim light). To test for the effect of the peptides on feeding, slugs were fed a diet of lettuce leaf tissues treated with water alone or with 200 nmol of individual peptides (SEQ ID NO: 19, SEQ ID NO: 25, and SEQ ID NO: 26) dissolved in 10 μL water (FIG. 8). Ten gray garden slugs were used for each treatment and each treatment was replicated three times.

[5] = dry conditions (Petri dish), after 24 h
[6] = wet conditions (Petri dish with wet paper towel), within 24 h

| Substance | slug mortality (gray garden slugs [1]; [5]) | slug mortality (gray garden slugs [1]; [6]) | binding activity / activation of the receptors [3] | other results |
| --- | --- | --- | --- | --- |
| PMSMLRL [SEQ ID NO: 1, synthetic peptide, source D. reticulatum] | 40% | – | – | – |
| QPPVPRY [SEQ ID NO: 4, synthetic peptide, source D. reticulatum] | – | – | – | body weight loss relative to water control (gray garden slugs [2]): ~2 fold; EC50 [3]: 12.7 nM |
| QPPLPRA [SEQ ID NO: 25] | 70% | 40% | – | anti-feeding (gray garden slugs [4]; within 1 h): 66.7%; anti-feeding (gray garden slugs [4]; within 2 h): 46.7%; anti-feeding (gray garden slugs [4]; within 6 h): 16.7% |
| PLPRY [SEQ ID NO: 28] | – | – | retained the ability to activate the receptors | – |
| QPPAPRY [SEQ ID NO: 22] | – | – | maintained binding activity and activated the receptors | – |
| QAPLPRY [SEQ ID NO: 20] | – | – | maintained binding activity and activated the receptors | – |
| QPALPRY [SEQ ID NO: 21] | – | – | maintained binding activity and activated the receptors | – |
| QPPLPRY [SEQ ID NO: 3, synthetic peptide, source D. reticulatum] | 70% | No mortalities were observed | – | body weight loss relative to water control (gray garden slugs [2]): ~2 fold; phenotypic effects after injection (gray garden slugs [2]; injected peptide, FIG. 4): excreted large volumes of milky mucus within 1 minute, exhibited body paralysis, extruding tentacles, weight loss and dehydration; EC50 [3]: 1.4 nM |
| LPRY [SEQ ID NO: 26] | 70% | 30% | retained the ability to activate the receptors | anti-feeding (gray garden slugs [4]; within 1 h): 73.3%; anti-feeding (gray garden slugs [4]; within 2 h): 48.0%; anti-feeding (gray garden slugs [4]; within 6 h): 23.3% |
| PPLPRY [SEQ ID NO: 27] | – | – | retained the ability to activate the receptors | – |
| APPLPRY [SEQ ID NO: 19] | 90% | 40% | maintained binding activity and activated the receptors | anti-feeding (gray garden slugs [4]; within 1 h): 93.3%; anti-feeding (gray garden slugs [4]; within 2 h): 91.3%; anti-feeding (gray garden slugs [4]; within 6 h): 80.7% |
